# From the supplement of paper PMC10307832
# What was measured:
# Assay in all cases: relative viability (nuclei count vs DMSO), 5 days (fraction); higher = more cells survive
# [1] = tested on: 201T
# Method in brief: (§1)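 A single step with final 0.05% Triton X-100, 1% formaldehyde and 1 ug/ml Hoechst fixed the cells and stained nuclei 5 days after treatment. Lung cancer cell lines in 1536-well plates had been treated by pin tool the day after seeding with one drug alone or a fixed anchor-drug dose plus five library-drug doses (not always all listed) in √10 steps, and nuclei were counted on 4× images. Relative viability is the ratio of nuclei in treated wells to nuclei in vehicle wells, taken as the median of duplicate plates.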
# [2] = tested on: A-427
# Method in brief: as §1
# [3] = tested on: COR-L23
# Method in brief: as §1
# [4] = tested on: H3255
# Method in brief: as §1
# [5] = tested on: LCLC-103H
# Method in brief: as §1
# [6] = tested on: LCLC-97TM1
# Method in brief: as §1
# [7] = tested on: LK-2
# Method in brief: as §1
# [8] = tested on: LU99A
# Method in brief: as §1
# [9] = tested on: NCI-H1563
# Method in brief: as §1
# [10] = tested on: NCI-H1650
# Method in brief: as §1
# [11] = tested on: NCI-H1651
# Method in brief: as §1
# [12] = tested on: NCI-H1793
# Method in brief: as §1
structure (smiles),measurement,setting,value
COc1cc(N2CCC(C(N)=O)CC2)ccc1Nc1nc(N)c(Cl)c(Nc2ccccc2S(=O)(=O)C(C)C)n1 [HG-5-88-01] + Nc1nc2[nH]cc(CCc3ccc(C(=O)N[C@@H](CCC(=O)O)C(=O)O)cc3)c2c(=O)[nH]1 [Pemetrexed] (partner 0.2 µM),relative viability,[1]; first compound 0.04 µM,0.301
same,relative viability,[1]; first compound 0.1265 µM,0.325
same,relative viability,[1]; first compound 1.265 µM,0.332
same,relative viability,[1]; first compound 4 µM,0.272
same,relative viability,[2]; first compound 0.04 µM,0.951
same,relative viability,[2]; first compound 0.1265 µM,1.01
same,relative viability,[2]; first compound 0.4 µM,1
same,relative viability,[2]; first compound 1.265 µM,1.02
same,relative viability,[2]; first compound 4 µM,0.9
same,relative viability,[3]; first compound 0.04 µM,0.196
same,relative viability,[3]; first compound 0.1265 µM,0.208
same,relative viability,[3]; first compound 0.4 µM,0.184
same,relative viability,[3]; first compound 1.265 µM,0.199
same,relative viability,[3]; first compound 4 µM,0.166
same,relative viability,[4]; first compound 0.04 µM,0.578
same,relative viability,[4]; first compound 0.1265 µM,0.571
same,relative viability,[4]; first compound 0.4 µM,0.54
same,relative viability,[4]; first compound 4 µM,0.501
same,relative viability,[5]; first compound 0.04 µM,0.443
same,relative viability,[5]; first compound 0.1265 µM,0.505
same,relative viability,[5]; first compound 0.4 µM,0.462
same,relative viability,[5]; first compound 1.265 µM,0.492
same,relative viability,[5]; first compound 4 µM,0.33
same,relative viability,[6]; first compound 0.04 µM,0.208
same,relative viability,[6]; first compound 0.1265 µM,0.179
same,relative viability,[6]; first compound 0.4 µM,0.132
same,relative viability,[6]; first compound 1.265 µM,0.155
same,relative viability,[6]; first compound 4 µM,0.131
same,relative viability,[7]; first compound 0.04 µM,0.159
same,relative viability,[7]; first compound 0.1265 µM,0.295
same,relative viability,[7]; first compound 0.4 µM,0.249
same,relative viability,[7]; first compound 4 µM,0.202
same,relative viability,[8]; first compound 0.04 µM,0.163
same,relative viability,[8]; first compound 0.1265 µM,0.211
same,relative viability,[8]; first compound 0.4 µM,0.165
same,relative viability,[8]; first compound 1.265 µM,0.193
same,relative viability,[8]; first compound 4 µM,0.168
same,relative viability,[9]; first compound 0.04 µM,0.798
same,relative viability,[9]; first compound 0.1265 µM,0.754
same,relative viability,[9]; first compound 0.4 µM,0.767
same,relative viability,[9]; first compound 1.265 µM,0.652
same,relative viability,[9]; first compound 4 µM,0.973
same,relative viability,[10]; first compound 0.04 µM,0.352
same,relative viability,[10]; first compound 0.1265 µM,0.36
same,relative viability,[10]; first compound 0.4 µM,0.346
same,relative viability,[10]; first compound 1.265 µM,0.343
same,relative viability,[10]; first compound 4 µM,0.354
same,relative viability,[11]; first compound 0.04 µM,0.499
same,relative viability,[11]; first compound 0.1265 µM,0.586
same,relative viability,[11]; first compound 0.4 µM,0.622
same,relative viability,[11]; first compound 1.265 µM,0.538
same,relative viability,[11]; first compound 4 µM,0.614
same,relative viability,[12]; first compound 0.04 µM,0.829
same,relative viability,[12]; first compound 0.1265 µM,0.8
same,relative viability,[12]; first compound 0.4 µM,0.828
same,relative viability,[12]; first compound 1.265 µM,0.692
